Results as given in patent publication USRE39149E1, “Method of administering azithromycin” (Pfizer Inc., priority 1994, dated 2006).

Experiment: Stability of azithromycin at acid pH / in stomach juices
Assay type: physicochemical
Source text: Thus, without being bound to any mechanism of action, it is surprising that rapid disintegration in the GI tract appears to be of importance to the invention.

stability at low (acid) pH (on the order of the pH of stomach acid): unstable
stability on exposure to stomach juices (stomach juices, acid pH): breaks down
Compound: CC[C@H]1OC(=O)[C@H](C)[C@@H](O[C@H]2C[C@@](C)(OC)[C@@H](O)[C@H](C)O2)[C@H](C)[C@@H](O[C@@H]2O[C@H](C)C[C@H](N(C)C)[C@H]2O)[C@](C)(O)C[C@@H](C)CN(C)[C@H](C)[C@@H](O)[C@]1(C)O [azithromycin, 9a-aza-9a-methyl-9-deoxo-9a-homoerythromycin A]
